Experimental data: paper PMC6598645 (Chemical Science, 2019)
*1 amine or outer side, *2 acyl side, *3 side chain or, on linkers, in order; H or OH if unused. Where a SMILES comes first, the peptide text is derived from it. Bridges are numbered along the chain shown (N, C = ends). [ ]: non-standard residue; d: D form. X2 = O=C([C@H](CCNP(=O)(CC[*:3])OCc1ccccc1)N[*:1])[*:2]; Nle = CCCC[C@H](N)C(=O)O

Tested on: HeLa cells
Experiment: Cellular uptake of CF-labelled peptides, confocal imaging
Assay type: cell-based
Settings: 10 μM mixture of 10% fluorescein (CF) labelled and 90% non-labelled peptides, three hours, 37°C, confocal microscopy

Molecule	cellular uptake
AcLSQEQLEHRERSL TLR IQRNMLFNH2 (sidechain bridge or staple) [compound 7, RCM-BCL9-Nle peptide]	taken up readily
CCCC[C@H](NC(=O)[C@H](CCCNC(=N)N)NC(=O)[C@H](CCC(N)=O)NC(=O)[C@@H](NC(=O)[C@H]1CSCCP(=O)(OCc2ccccc2)NCC[C@H](NC(=O)[C@H](CC(C)C)NC(=O)[C@H](CO)NC(=O)[C@H](CCCNC(=N)N)NC(=O)[C@H](CCC(=O)O)NC(=O)[C@H](CCCNC(=N)N)NC(=O)[C@H](Cc2c[nH]cn2)NC(=O)[C@H](CCC(=O)O)NC(=O)[C@H](CC(C)C)NC(=O)[C@H](CCC(N)=O)NC(=O)[C@H](CCC(=O)O)NC(=O)[C@H](CCC(N)=O)NC(=O)[C@H](CO)NC(=O)[C@H](CC(C)C)NC(C)=O)C(=O)N[C@@H]([C@@H](C)O)C(=O)N[C@@H](CC(C)C)C(=O)N[C@@H](CCCNC(=N)N)C(=O)N1)[C@@H](C)CC)C(=O)N[C@@H](CC(C)C)C(=O)N[C@@H](Cc1ccccc1)C(N)=O (stereo partly drawn) [compound 13, cyclic-benzylphosphonamidate-BCL9-Nle-Aha-DCys peptide] (Ac-LSQEQLEHRERSL[X2]TLR[dC]IQR[Nle]LF-NH2; thioether 14-18; N-terminus and C-terminus assumed)	increased cellular uptake
